Assay results: patent US4345938A, “Herbicidal 2-haloacetanilides” (Monsanto Company, priority 1980, dated 1982)
Where two headings read alike, the source gives them in different places.

Experiments:
Format in all cases: in vivo
[1] = tested on: Sagittaria trifolia; assay: Greenhouse transplant rice test, ST; conditions: Sagittaria trifolia, about 3 WAT, read-out: Percent Inhibition, ST
Text: (§1) The test procedure used in this greenhouse test is as follows: Ray silt loam top soil containing about 0.05% by weight of krillium and sifted through a […] screen is fumigated about 5-10 days prior to use. Pots are then filled with said Ray silt loam soil to a level to allow for a 1 in. (2.54 cm) flooding depth. Rice plants (Bluebelle) of 2 to 3 weeks age are transplanted to the pots and bulbs or seeds of the test weeds also planted in the pots. The pots are then flooded and the test chemical applied to the surface of the flood water. The flood water is reduced to allow for germination of the Echinochloa crus-galli (barnyardgrass) seed and subsequently reflooded and maintained in that condition. Observations of percent inhibition using a scale of 0-100% are made about 3 weeks after transplant (WAT).
(§2) The test data in Table III for all compounds was obtained under identical test conditions. The weeds used in the tests herein have the following abbreviations in the tables: Echinochloa crus-galli (EC), Monochloria vaginalis (MV), Cyperus Serotinus (CS), Eleocharis Kuroguwai (EK) and Sagittaria trifolia (ST).

[2] = tested on: Monochoria vaginalis; assay: Field transplant rice test, applied 0 DAT, MV; conditions: Pontederia vaginalis, 0 h, read-out: Percent Inhibition, MV; for inhibition at 375 g/ha: 0.375 Kg/Ha; for inhibition at 750 g/ha: 0.75 Kg/Ha; for inhibition at 1500 g/ha: 1.5 Kg/Ha; for inhibition at 3000 g/ha: 3.0 Kg/Ha
Protocol: as §2
(§3) In further comparative tests, a preferred compound of this invention (Example 1) was tested in the field with prior art Compounds A-D. These tests were conducted under conditions reflecting herbicide application times generally favorable to all herbicides in the test. The timing of application of herbicides to transplant rice is very important, whether, as in some instances, prior to transplanting the rice; in other instances, at the time of transplanting or else after transplanting. Application times are conventionally referred to as "days before transplant" (DBT) or "days after transplant" ("DAT"). The field test data in Table IV was obtained from a test in which the herbicides were applied at the time of transplant, i.e., "0 DAT", with observations being made weekly up to six weeks after transplant ("WAT") beginning at two weeks after transplant; for illustrative and representative purposes, only the early, middle and late period observations, i.e., 2 WAT, 4 WAT and 6 WAT, are shown in Table IV. The data in Table IV is for rates of application common to all herbicides in the test, i.e., from 3.0 kg/ha (2.67 lb/A) down to 0.375 kg/ha (0.34 lb/A). All herbicides were applied at their actual or expected use rates, i.e., as granules containing 2.5% by weight herbicide for the compound of Example 1, Compounds B, C and D and 5.0% by weight for Compound A.

[3] = tested on: Monochoria vaginalis; assay: Greenhouse transplant rice test, MV; conditions: Pontederia vaginalis, about 3 WAT, read-out: Percent Inhibition, MV
Text: as §1, §2

[4] = tested on: Upland seeded rice; assay: Upland seeded rice greenhouse test, rice safety; conditions: Upland seeded rice, greenhouse; maximum test rate
Protocol: In another comparative test in the greenhouse, the compound of Example 2 and Compound B were tested in Upland seeded rice. […] In contrast, Compound A, (a commercial rice herbicide), required 0.14 kg/ha (0.125 lb/A) to selectively control the same weed with rice safety also maintained at 1.12 kg/ha resulting in a selectivity factor of at least 8, i.e., less than one-half that of the compound of Example 2.

[5] = tested on: Sagittaria trifolia; assay: Field transplant rice test, applied 9 DAT, ST; conditions: 216 h, read-out: Percent Inhibition, ST; for inhibition at 375 g/ha: 0.375 Kg/Ha; for inhibition at 750 g/ha: 0.75 Kg/Ha; for inhibition at 1500 g/ha: 1.5 Kg/Ha; for inhibition at 3000 g/ha: 3.0 Kg/Ha
Protocol: as §2, §3
In Table V are presented field data showing the relative performance of the compound of Example 1 and Compounds A-D applied 9 DAT, with observations being made weekly from 3 WAT to 7 WAT; again, for illustrative and representative purposes, only the early, middle and late period observations are reported in Table V, the herbicide rates and concentrations of active ingredients the same as is shown in Table IV.

CCCCOCN(C(=O)CCl)c1c(CC)cccc1CC [Compound A, 2',6'-diethyl-N-(n-butoxymethyl)-2-chloroacetanilide]
inhibition at 280 g/ha ([1]; 0.28 Kg/Ha): 15% | inhibition at 560 g/ha ([1]; 0.56 Kg/Ha): 45% | inhibition at 1120 g/ha ([1]; 1.12 Kg/Ha): 30% | inhibition at 2240 g/ha ([1]; 2.24 Kg/Ha): 15% | inhibition at 375 g/ha ([2]; 2 WAT): 98% | inhibition at 375 g/ha ([2]; 4 WAT): 87% | inhibition at 375 g/ha ([2]; 6 WAT): 82% | inhibition at 750 g/ha ([2]; 2 WAT): 100% | inhibition at 750 g/ha ([2]; 4 WAT): 98% | inhibition at 750 g/ha ([2]; 6 WAT): 100% | inhibition at 1500 g/ha ([2]; 2 WAT): 100% | inhibition at 1500 g/ha ([2]; 4 WAT): 100% | inhibition at 1500 g/ha ([2]; 6 WAT): 100% | inhibition at 3000 g/ha ([2]; 2 WAT): 100% | inhibition at 3000 g/ha ([2]; 4 WAT): 100% | inhibition at 3000 g/ha ([2]; 6 WAT): 100% | inhibition at 280 g/ha ([3]; 0.28 Kg/Ha): 98% | inhibition at 560 g/ha ([3]; 0.56 Kg/Ha): 100% | inhibition at 1120 g/ha ([3]; 1.12 Kg/Ha): 100% | inhibition at 2240 g/ha ([3]; 2.24 Kg/Ha): 100% | rate at which rice safety is maintained [4]: ≥ 1.12 kg/ha | inhibition at 375 g/ha ([5]; 3 WAT): 37% | inhibition at 375 g/ha ([5]; 5 WAT): 12% | inhibition at 375 g/ha ([5]; 7 WAT): 7% | inhibition at 750 g/ha ([5]; 3 WAT): 26% | inhibition at 750 g/ha ([5]; 5 WAT): 10% | inhibition at 750 g/ha ([5]; 7 WAT): 8% | inhibition at 1500 g/ha ([5]; 3 WAT): 35% | inhibition at 1500 g/ha ([5]; 5 WAT): 5% | inhibition at 1500 g/ha ([5]; 7 WAT): 3% | inhibition at 3000 g/ha ([5]; 3 WAT): 52% | inhibition at 3000 g/ha ([5]; 5 WAT): 23% | inhibition at 3000 g/ha ([5]; 7 WAT): 13%
